Source: ChEMBL document CHEMBL1201862, “PubChem BioAssay data set” (2004)
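Following 48 hours of exposure in 96-well plates, responses at five concentrations were used to interpolate endpoints linearly. GI50 marks 50% less growth.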 Activity calls are given as the source filed them. No stated cut-off is given here; in the data, active = GI50 up to about 1.1 µM and inactive = higher.

Columns and labels:
Test in all cases: DTP human tumour cell line panel, 48 h
CAKI-1 = system: CAKI-1
UACC-62 = system: UACC-62
OVCAR-8 = system: OVCAR-8
HT-29 = system: HT-29
HOP-92 = system: HOP-92
SK-MEL-2 = system: SK-MEL-2
SF-295 = system: SF-295
DMS-114 = system: DMS-114
RXF 393 = system: RXF 393
UACC-257 = system: UACC-257
DLD-1 = system: DLD-1
EKVX = system: EKVX
M19-MEL = system: M19-MEL
MOLT-4 = system: MOLT-4
HCT-116 = system: HCT-116
OVCAR-4 = system: OVCAR-4
NCI-H460 = system: NCI-H460
SR = system: SR
SN12C = system: SN12C
RPMI-8226 = system: RPMI-8226
SK-MEL-5 = system: SK-MEL-5
SF-539 = system: SF-539
IGROV-1 = system: IGROV-1
HCC 2998 = system: HCC 2998
SK-MEL-28 = system: SK-MEL-28
K562 = system: K562
A498 = system: A498
RXF 631 = system: RXF 631
A549 = system: A549
NCI-H522 = system: NCI-H522
OVCAR-3 = system: OVCAR-3
KM12 = system: KM12
OVCAR-5 = system: OVCAR-5
NCI-H23 = system: NCI-H23
KM-20L2 = system: KM-20L2
TK-10 = system: TK-10
HOP-62 = system: HOP-62
Malme-3M = system: Malme-3M
SW-620 = system: SW-620
COLO 205 = system: COLO 205
SK-OV-3 = system: SK-OV-3
HL-60 = system: HL-60
ACHN = system: ACHN
UO-31 = system: UO-31
786-0 = system: 786-0
SNB-19 = system: SNB-19
M14 = system: M14
CCRF-CEM = system: CCRF-CEM
SF-268 = system: SF-268
XF498 = system: XF498
DMS-273 = system: DMS-273
SNB-78 = system: SNB-78
LOX IMVI = system: LOX IMVI
SNB-75 = system: SNB-75
HCT-15 = system: HCT-15
NCI-H226 = system: NCI-H226
HOP-18 = system: HOP-18
LXFL 529 = system: LXFL 529
U-251 = system: U-251

Compound: CNS(=O)(=O)NNS(=O)(=O)c1ccc(Cl)cc1
- GI50 (CAKI-1): > 100 µM (inactive)
- GI50 (UACC-62): > 100 µM (inactive)
- GI50 (OVCAR-8): > 100 µM (inactive)
- GI50 (HT-29): > 100 µM (inactive)
- GI50 (HOP-92): > 100 µM (inactive)
- GI50 (SK-MEL-2): > 100 µM (inactive)
- GI50 (SF-295): > 100 µM (inactive)
- GI50 (DMS-114): > 100 µM (inactive)
- GI50 (RXF 393): > 100 µM (inactive)
- GI50 (UACC-257): > 100 µM (inactive)
- GI50 (DLD-1): > 100 µM (inactive)
- GI50 (EKVX): > 100 µM (inactive)
- GI50 (M19-MEL): > 100 µM (inactive)
- GI50 (MOLT-4): > 100 µM (inactive)
- GI50 (HCT-116): > 100 µM (inactive)
- GI50 (OVCAR-4): > 100 µM (inactive)
- GI50 (NCI-H460): > 100 µM (inactive)
- GI50 (SR): > 100 µM (inactive)
- GI50 (SN12C): > 100 µM (inactive)
- GI50 (RPMI-8226): > 100 µM (inactive)
- GI50 (SK-MEL-5): > 100 µM (inactive)
- GI50 (SF-539): > 100 µM (inactive)
- GI50 (IGROV-1): > 100 µM (inactive)
- GI50 (HCC 2998): > 100 µM (inactive)
- GI50 (SK-MEL-28): > 100 µM (inactive)
- GI50 (K562): > 100 µM (inactive)
- GI50 (A498): > 100 µM (inactive)
- GI50 (RXF 631): > 100 µM (inactive)
- GI50 (A549): > 100 µM (inactive)
- GI50 (NCI-H522): > 100 µM (inactive)
- GI50 (OVCAR-3): > 100 µM (inactive)
- GI50 (KM12): > 100 µM (inactive)
- GI50 (OVCAR-5): > 100 µM (inactive)
- GI50 (NCI-H23): > 100 µM (inactive)
- GI50 (KM-20L2): > 100 µM (inactive)
- GI50 (TK-10): > 100 µM (inactive)
- GI50 (HOP-62): > 100 µM (inactive)
- GI50 (Malme-3M): > 100 µM (inactive)
- GI50 (SW-620): > 100 µM (inactive)
- GI50 (COLO 205): > 100 µM (inactive)
- GI50 (SK-OV-3): > 100 µM (inactive)
- GI50 (HL-60): > 100 µM (inactive)
- GI50 (ACHN): > 100 µM (inactive)
- GI50 (UO-31): 48.2 µM (inactive)
- GI50 (786-0): > 100 µM (inactive)
- GI50 (SNB-19): > 100 µM (inactive)
- GI50 (M14): > 100 µM (inactive)
- GI50 (CCRF-CEM): > 100 µM (inactive)
- GI50 (SF-268): > 100 µM (inactive)

Compound: COc1ccc(-c2nnc(-c3c(C)n(C)n(-c4ccccc4)c3=O)o2)cc1
- GI50 (XF498): > 100 µM (inactive)
- GI50 (UACC-62): > 100 µM (inactive)
- GI50 (OVCAR-8): > 100 µM (inactive)
- GI50 (DMS-273): > 100 µM (inactive)
- GI50 (HT-29): > 100 µM (inactive)
- GI50 (HOP-92): > 100 µM (inactive)
- GI50 (SK-MEL-2): > 100 µM (inactive)
- GI50 (SF-295): > 100 µM (inactive)
- GI50 (DMS-114): > 100 µM (inactive)
- GI50 (SNB-78): 68.7 µM (inactive)
- GI50 (RXF 393): > 100 µM (inactive)
- GI50 (UACC-257): > 100 µM (inactive)
- GI50 (DLD-1): > 100 µM (inactive)
- GI50 (EKVX): > 100 µM (inactive)
- GI50 (M19-MEL): > 100 µM (inactive)
- GI50 (MOLT-4): > 100 µM (inactive)
- GI50 (HCT-116): > 100 µM (inactive)
- GI50 (OVCAR-4): > 100 µM (inactive)
- GI50 (NCI-H460): > 100 µM (inactive)
- GI50 (SR): > 100 µM (inactive)
- GI50 (SN12C): > 100 µM (inactive)
- GI50 (RPMI-8226): > 100 µM (inactive)
- GI50 (SF-539): > 100 µM (inactive)
- GI50 (IGROV-1): > 100 µM (inactive)
- GI50 (HCC 2998): > 100 µM (inactive)
- GI50 (SK-MEL-28): > 100 µM (inactive)
- GI50 (K562): > 100 µM (inactive)
- GI50 (A498): > 100 µM (inactive)
- GI50 (LOX IMVI): > 100 µM (inactive)
- GI50 (SNB-75): > 100 µM (inactive)
- GI50 (HCT-15): > 100 µM
- GI50 (NCI-H226): > 100 µM (inactive)
- GI50 (A549): > 100 µM (inactive)
- GI50 (NCI-H522): > 100 µM (inactive)
- GI50 (OVCAR-3): > 100 µM (inactive)
- GI50 (KM12): > 100 µM (inactive)
- GI50 (NCI-H23): > 100 µM (inactive)
- GI50 (KM-20L2): > 100 µM (inactive)
- GI50 (TK-10): > 100 µM (inactive)
- GI50 (HOP-18): > 100 µM (inactive)
- GI50 (HOP-62): > 100 µM (inactive)
- GI50 (Malme-3M): > 100 µM (inactive)
- GI50 (SW-620): > 100 µM (inactive)
- GI50 (COLO 205): > 100 µM (inactive)
- GI50 (SK-OV-3): > 100 µM (inactive)
- GI50 (LXFL 529): > 100 µM (inactive)
- GI50 (HL-60): > 100 µM (inactive)
- GI50 (ACHN): > 100 µM (inactive)
- GI50 (U-251): > 100 µM (inactive)
- GI50 (UO-31): > 100 µM (inactive)
- GI50 (786-0): > 100 µM (inactive)
- GI50 (SNB-19): > 100 µM (inactive)
- GI50 (M14): > 100 µM (inactive)
- GI50 (CCRF-CEM): > 100 µM (inactive)
- GI50 (SF-268): > 100 µM (inactive)

Compound: CC(C)=C1CCC(CN(C)C)C1=O (stereo not given)
- GI50 (UACC-62): 18.1 µM (inactive)
- GI50 (OVCAR-8): 22.3 µM (inactive)
- GI50 (HT-29): 20.6 µM (inactive)
- GI50 (HOP-92): 20.9 µM (inactive)
- GI50 (SK-MEL-2): 26.3 µM (inactive)
- GI50 (SF-295): > 100 µM (inactive)
- GI50 (DMS-114): 16.5 µM (inactive)
- GI50 (SNB-78): > 10 µM (inactive)
- GI50 (RXF 393): 18.6 µM (inactive)
- GI50 (UACC-257): 17.5 µM (inactive)
- GI50 (DLD-1): 6.85 µM (inactive)
- GI50 (EKVX): 17.7 µM (inactive)
- GI50 (M19-MEL): 47.2 µM (inactive)
- GI50 (MOLT-4): 12.1 µM (inactive)
- GI50 (HCT-116): 12.9 µM (inactive)
- GI50 (OVCAR-4): 15 µM (inactive)
- GI50 (NCI-H460): > 100 µM (inactive)
- GI50 (SR): 12.4 µM (inactive)
- GI50 (SN12C): 18.4 µM (inactive)
- GI50 (SK-MEL-5): 15.6 µM (inactive)
- GI50 (SF-539): > 100 µM (inactive)
- GI50 (IGROV-1): > 100 µM (inactive)
- GI50 (HCC 2998): 19.1 µM (inactive)
- GI50 (SK-MEL-28): 18.2 µM (inactive)
- GI50 (K562): 6.08 µM (inactive)
- GI50 (A498): 19.6 µM (inactive)
- GI50 (RXF 631): 13.6 µM (inactive)
- GI50 (SNB-75): 0.234 µM (active)
- GI50 (HCT-15): 14.8 µM
- GI50 (A549): > 100 µM (inactive)
- GI50 (NCI-H522): 0.196 µM (active)
- GI50 (OVCAR-3): 17.6 µM (inactive)
- GI50 (KM12): 29.7 µM (inactive)
- GI50 (OVCAR-5): > 100 µM (inactive)
- GI50 (NCI-H23): 35.7 µM (inactive)
- GI50 (KM-20L2): 13.7 µM (inactive)
- GI50 (TK-10): 17.1 µM (inactive)
- GI50 (HOP-18): 22.1 µM (inactive)
- GI50 (Malme-3M): 16.3 µM (inactive)
- GI50 (SW-620): 6.12 µM (inactive)
- GI50 (COLO 205): 24.1 µM (inactive)
- GI50 (LXFL 529): 12.8 µM (inactive)
- GI50 (HL-60): 3.61 µM (inactive)
- GI50 (ACHN): 17.7 µM (inactive)
- GI50 (U-251): > 100 µM (inactive)
- GI50 (UO-31): > 100 µM (inactive)
- GI50 (786-0): 12.6 µM (inactive)
- GI50 (SNB-19): > 100 µM (inactive)
- GI50 (M14): 14.4 µM (inactive)
- GI50 (CCRF-CEM): 8.95 µM (inactive)
- GI50 (SF-268): 31.5 µM (inactive)
